Patent publication US6626122B2, “Deactivatable biocides in ballast water” (Chevron U.S.A. Inc, priority 2001, dated 2003)
In brackets after ≈: the same amount, converted by molar mass. Like-named read-outs stand apart in the source and are kept apart here.

Tests used:
bacterial inoculum [1] = experiment: Evaluation of biocides: inhibition of growth on FT diesel and ALAD diesel; format: cell-based, alkane degrading organisms; note: key: −: No Growth; +: Growth (White Unless Otherwise Indicated)
Method: The ability of biocides to inhibit growth on a FT diesel and a low aromatics diesel fuel from Example 1 was investigated.
Test Conditions: 90 ml of growth media and 10 ml of either FT diesel or low sulfur (ALAD) diesel was added to 250 ml flasks. […] In addition to the 2 alkynes, glutaraldehyde (glutaric dialdehyde 50%), was tested. The following summarizes the test conditions:
100 ppm inhibitor (on a total test volume basis or 1000 ppm in diesel)
1% inhibitor (on a total test volume basis or 10% in diesel).
After inoculation, the flasks were place on a shaker-table (135 rpm) at room temperature and observed daily.

bacterial inoculum [2] = format: cell-based; conditions: for Growth, nitrogen compound control: control without glutaraldehyde; for Growth, nitrogen compound control / Growth, Neutralization of Biocides with Nitrogen Compounds: n-C16; for neutralizing 10 ppm of glutaraldehyde: two moles per glutaraldehyde; for Growth, Neutralization of Biocides with Nitrogen Compounds: with 10 ppm glutaraldehyde, two moles nitrogen compound per glutaraldehyde
Source text: The different nitrogen-containing compounds evaluated include the following: […]

bacteria = experiment: Neutralization of biocides - H2O2 and NH4Cl; format: cell-based; conditions: for microbial growth: after 14 days, 1, 10 or 100 ppm glutaraldehyde mixed with five times molar excess of the agent; for neutralizing biocides (glutaraldehyde): five times molar excess over 1, 10 or 100 ppm glutaraldehyde
Method: In this experiment, minimal medium containing 1, 10 or 100 ppm of glutaraldehyde was mixed with a five times molar excess of H2O2 or NH4Cl. Hydrocarbonaceous product and bacteria were then added to the mixture.

in vivo = conditions: Cyprinodon variegatus (sheepshead minnow, larval), 96 h, control experiment, separate compounds
Method: (§1) […]. EPA/600/4-90/027F Washington, D.C.) conducted at Pacific Eco-Risk Laboratories, Martinez, Calif.
(§2) LOEC is the Lowest Observable Effect Concentration and is defined as the minimum concentration where mortality is observed for the test species. […] LC-50, the concentration that will cause mortality of 50% of the organisms tested within 96 h, is a calculated value based on all observations.
(§3) The solutions were mixed for 48 hours prior to the start of the bioassays. The solutions were diluted to perform bioassays at starting glutaraldehyde concentrations of 100, 50, 37.5, 25, and 10.5 mg/L. The results are summarized in Table X.

[3] = system: Larval Sheepshead Minnow (Cyprinodon variegatus); experiment: in vivo; conditions: Cyprinodon variegatus (sheepshead minnow), 96 h
Method: as §1, §2, §3

[4] = FT Diesel + 1 Wt % biocide, Day 0
[5] = FT Diesel + 1 Wt % biocide, Day 1
[6] = FT Diesel + 1 Wt % biocide, Day 5
[7] = FT Diesel + 1 Wt % biocide, Day 7
[8] = FT Diesel + 1 Wt % biocide, Day 8
[9] = FT Diesel + 1 Wt % biocide, Day 19
[10] = FT Diesel + 100 ppm biocide, Day 0
[11] = FT Diesel + 100 ppm biocide, Day 1
[12] = FT Diesel + 100 ppm biocide, Day 5
[13] = FT Diesel + 100 ppm biocide, Day 7
[14] = FT Diesel + 100 ppm biocide, Day 8
[15] = FT Diesel + 100 ppm biocide, Day 19
[16] = LA Diesel + 1 Wt % biocide, Day 0
[17] = LA Diesel + 1 Wt % biocide, Day 1
[18] = LA Diesel + 1 Wt % biocide, Day 5
[19] = LA Diesel + 1 Wt % biocide, Day 7
[20] = LA Diesel + 1 Wt % biocide, Day 8
[21] = LA Diesel + 1 Wt % biocide, Day 19
[22] = LA Diesel + 100 ppm biocide, Day 0
[23] = LA Diesel + 100 ppm biocide, Day 1
[24] = LA Diesel + 100 ppm biocide, Day 5
[25] = LA Diesel + 100 ppm biocide, Day 7
[26] = LA Diesel + 100 ppm biocide, Day 8
[27] = LA Diesel + 100 ppm biocide, Day 19

C#CCO [P, Propargyl alcohol]
Growth, Test Results on Fischer-Tropsch Diesel Fuel (bacterial inoculum [1]; [4]): − | Growth, Test Results on Fischer-Tropsch Diesel Fuel (bacterial inoculum [1]; [5]): − | Growth, Test Results on Fischer-Tropsch Diesel Fuel (bacterial inoculum [1]; [6]): − | Growth, Test Results on Fischer-Tropsch Diesel Fuel (bacterial inoculum [1]; [7]): − | Growth, Test Results on Fischer-Tropsch Diesel Fuel (bacterial inoculum [1]; [8]): − | Growth, Test Results on Fischer-Tropsch Diesel Fuel (bacterial inoculum [1]; [9]): − | Growth, Test Results on Fischer-Tropsch Diesel Fuel (bacterial inoculum [1]; [10]): − | Growth, Test Results on Fischer-Tropsch Diesel Fuel (bacterial inoculum [1]; [11]): − | Growth, Test Results on Fischer-Tropsch Diesel Fuel (bacterial inoculum [1]; [12]): − | Growth, Test Results on Fischer-Tropsch Diesel Fuel (bacterial inoculum [1]; [13]): + | Growth, Test Results on Fischer-Tropsch Diesel Fuel (bacterial inoculum [1]; [14]): + | Growth, Test Results on Fischer-Tropsch Diesel Fuel (bacterial inoculum [1]; [15]): + | Growth, Test Results on ALAD Diesel Fuel (bacterial inoculum [1]; [16]): − | Growth, Test Results on ALAD Diesel Fuel (bacterial inoculum [1]; [17]): − | Growth, Test Results on ALAD Diesel Fuel (bacterial inoculum [1]; [18]): − | Growth, Test Results on ALAD Diesel Fuel (bacterial inoculum [1]; [19]): − | Growth, Test Results on ALAD Diesel Fuel (bacterial inoculum [1]; [20]): − | Growth, Test Results on ALAD Diesel Fuel (bacterial inoculum [1]; [21]): − | Growth, Test Results on ALAD Diesel Fuel (bacterial inoculum [1]; [22]): − | Growth, Test Results on ALAD Diesel Fuel (bacterial inoculum [1]; [23]): − | Growth, Test Results on ALAD Diesel Fuel (bacterial inoculum [1]; [24]): + Yellow | Growth, Test Results on ALAD Diesel Fuel (bacterial inoculum [1]; [25]): + Yellow | Growth, Test Results on ALAD Diesel Fuel (bacterial inoculum [1]; [26]): + Yellow | Growth, Test Results on ALAD Diesel Fuel (bacterial inoculum [1]; [27]): + Yellow

CCNCC [diethylamine, Diethylamine]
Growth, nitrogen compound control (bacterial inoculum [2]; Time 0 days): − | Growth, nitrogen compound control (bacterial inoculum [2]; Time 1 days): − | Growth, nitrogen compound control (bacterial inoculum [2]; Time 2 days): − | Growth, nitrogen compound control (bacterial inoculum [2]; Time 6 days): + | Growth, nitrogen compound control (bacterial inoculum [2]; Time 7 days): + | Growth, nitrogen compound control (bacterial inoculum [2]; Time 9 days): + | Growth, nitrogen compound control (bacterial inoculum [2]; Time 13 days): + | Growth, nitrogen compound control (bacterial inoculum [2]; Time 20 days): + | neutralizing 10 ppm of glutaraldehyde (bacterial inoculum [2]): effective | Growth, Neutralization of Biocides with Nitrogen Compounds (bacterial inoculum [2]; Time 0 days): − | Growth, Neutralization of Biocides with Nitrogen Compounds (bacterial inoculum [2]; Time 1 days): − | Growth, Neutralization of Biocides with Nitrogen Compounds (bacterial inoculum [2]; Time 2 days): − | Growth, Neutralization of Biocides with Nitrogen Compounds (bacterial inoculum [2]; Time 6 days): + | Growth, Neutralization of Biocides with Nitrogen Compounds (bacterial inoculum [2]; Time 7 days): + | Growth, Neutralization of Biocides with Nitrogen Compounds (bacterial inoculum [2]; Time 9 days): + | Growth, Neutralization of Biocides with Nitrogen Compounds (bacterial inoculum [2]; Time 13 days): + | Growth, Neutralization of Biocides with Nitrogen Compounds (bacterial inoculum [2]; Time 20 days): +

OO [H2O2]
microbial growth (bacteria): no growth | neutralizing biocides (glutaraldehyde) (bacteria): not effective

Nc1ccccc1 [aniline, Aniline]
toxicity of the nitrogen-containing compound itself (microbial growth) (bacterial inoculum [2]): excessively toxic | Growth, nitrogen compound control (bacterial inoculum [2]; Time 0 days): − | Growth, nitrogen compound control (bacterial inoculum [2]; Time 1 days): − | Growth, nitrogen compound control (bacterial inoculum [2]; Time 2 days): − | Growth, nitrogen compound control (bacterial inoculum [2]; Time 6 days): − | Growth, nitrogen compound control (bacterial inoculum [2]; Time 7 days): − | Growth, nitrogen compound control (bacterial inoculum [2]; Time 9 days): − | Growth, nitrogen compound control (bacterial inoculum [2]; Time 13 days): − | Growth, nitrogen compound control (bacterial inoculum [2]; Time 20 days): − | Growth, Neutralization of Biocides with Nitrogen Compounds (bacterial inoculum [2]; Time 0 days): − | Growth, Neutralization of Biocides with Nitrogen Compounds (bacterial inoculum [2]; Time 1 days): − | Growth, Neutralization of Biocides with Nitrogen Compounds (bacterial inoculum [2]; Time 2 days): − | Growth, Neutralization of Biocides with Nitrogen Compounds (bacterial inoculum [2]; Time 6 days): − | Growth, Neutralization of Biocides with Nitrogen Compounds (bacterial inoculum [2]; Time 7 days): − | Growth, Neutralization of Biocides with Nitrogen Compounds (bacterial inoculum [2]; Time 9 days): − | Growth, Neutralization of Biocides with Nitrogen Compounds (bacterial inoculum [2]; Time 13 days): − | Growth, Neutralization of Biocides with Nitrogen Compounds (bacterial inoculum [2]; Time 20 days): −

NCCO [MEA, Monoethanolamine]
LC50 at 96 h (in vivo): 1500 mg/L (≈ 24.6 mM) | LOEC [3]: 1700 mg/L | NOEC [3]: 1000 mg/L | Growth, nitrogen compound control (bacterial inoculum [2]; Time 0 days): − | Growth, nitrogen compound control (bacterial inoculum [2]; Time 1 days): − | Growth, nitrogen compound control (bacterial inoculum [2]; Time 2 days): − | Growth, nitrogen compound control (bacterial inoculum [2]; Time 6 days): − | Growth, nitrogen compound control (bacterial inoculum [2]; Time 7 days): + | Growth, nitrogen compound control (bacterial inoculum [2]; Time 9 days): + | Growth, nitrogen compound control (bacterial inoculum [2]; Time 13 days): + | Growth, nitrogen compound control (bacterial inoculum [2]; Time 20 days): + | neutralizing 10 ppm of glutaraldehyde (bacterial inoculum [2]): effective | Growth, Neutralization of Biocides with Nitrogen Compounds (bacterial inoculum [2]; Time 0 days): − | Growth, Neutralization of Biocides with Nitrogen Compounds (bacterial inoculum [2]; Time 1 days): − | Growth, Neutralization of Biocides with Nitrogen Compounds (bacterial inoculum [2]; Time 2 days): − | Growth, Neutralization of Biocides with Nitrogen Compounds (bacterial inoculum [2]; Time 6 days): + | Growth, Neutralization of Biocides with Nitrogen Compounds (bacterial inoculum [2]; Time 7 days): + | Growth, Neutralization of Biocides with Nitrogen Compounds (bacterial inoculum [2]; Time 9 days): + | Growth, Neutralization of Biocides with Nitrogen Compounds (bacterial inoculum [2]; Time 13 days): + | Growth, Neutralization of Biocides with Nitrogen Compounds (bacterial inoculum [2]; Time 20 days): +

C#CCCCC [H, 1-hexyne]
Growth, Test Results on Fischer-Tropsch Diesel Fuel (bacterial inoculum [1]; [4]): − | Growth, Test Results on Fischer-Tropsch Diesel Fuel (bacterial inoculum [1]; [5]): − | Growth, Test Results on Fischer-Tropsch Diesel Fuel (bacterial inoculum [1]; [6]): − | Growth, Test Results on Fischer-Tropsch Diesel Fuel (bacterial inoculum [1]; [7]): − | Growth, Test Results on Fischer-Tropsch Diesel Fuel (bacterial inoculum [1]; [8]): − | Growth, Test Results on Fischer-Tropsch Diesel Fuel (bacterial inoculum [1]; [9]): − | Growth, Test Results on Fischer-Tropsch Diesel Fuel (bacterial inoculum [1]; [10]): − | Growth, Test Results on Fischer-Tropsch Diesel Fuel (bacterial inoculum [1]; [11]): − | Growth, Test Results on Fischer-Tropsch Diesel Fuel (bacterial inoculum [1]; [12]): + | Growth, Test Results on Fischer-Tropsch Diesel Fuel (bacterial inoculum [1]; [13]): + | Growth, Test Results on Fischer-Tropsch Diesel Fuel (bacterial inoculum [1]; [14]): + | Growth, Test Results on Fischer-Tropsch Diesel Fuel (bacterial inoculum [1]; [15]): + | Growth, Test Results on ALAD Diesel Fuel (bacterial inoculum [1]; [16]): − | Growth, Test Results on ALAD Diesel Fuel (bacterial inoculum [1]; [17]): − | Growth, Test Results on ALAD Diesel Fuel (bacterial inoculum [1]; [18]): − | Growth, Test Results on ALAD Diesel Fuel (bacterial inoculum [1]; [19]): − | Growth, Test Results on ALAD Diesel Fuel (bacterial inoculum [1]; [20]): − | Growth, Test Results on ALAD Diesel Fuel (bacterial inoculum [1]; [21]): − | Growth, Test Results on ALAD Diesel Fuel (bacterial inoculum [1]; [22]): − | Growth, Test Results on ALAD Diesel Fuel (bacterial inoculum [1]; [23]): − | Growth, Test Results on ALAD Diesel Fuel (bacterial inoculum [1]; [24]): + | Growth, Test Results on ALAD Diesel Fuel (bacterial inoculum [1]; [25]): + | Growth, Test Results on ALAD Diesel Fuel (bacterial inoculum [1]; [26]): + | Growth, Test Results on ALAD Diesel Fuel (bacterial inoculum [1]; [27]): +

OCCNCCO [DEA, Diethanolamine]
Growth, nitrogen compound control (bacterial inoculum [2]; Time 0 days): − | Growth, nitrogen compound control (bacterial inoculum [2]; Time 1 days): − | Growth, nitrogen compound control (bacterial inoculum [2]; Time 2 days): − | Growth, nitrogen compound control (bacterial inoculum [2]; Time 6 days): + | Growth, nitrogen compound control (bacterial inoculum [2]; Time 7 days): + | Growth, nitrogen compound control (bacterial inoculum [2]; Time 9 days): + | Growth, nitrogen compound control (bacterial inoculum [2]; Time 13 days): + | Growth, nitrogen compound control (bacterial inoculum [2]; Time 20 days): − | neutralizing 10 ppm of glutaraldehyde (bacterial inoculum [2]): effective | Growth, Neutralization of Biocides with Nitrogen Compounds (bacterial inoculum [2]; Time 0 days): − | Growth, Neutralization of Biocides with Nitrogen Compounds (bacterial inoculum [2]; Time 1 days): + | Growth, Neutralization of Biocides with Nitrogen Compounds (bacterial inoculum [2]; Time 2 days): + | Growth, Neutralization of Biocides with Nitrogen Compounds (bacterial inoculum [2]; Time 6 days): + | Growth, Neutralization of Biocides with Nitrogen Compounds (bacterial inoculum [2]; Time 7 days): + | Growth, Neutralization of Biocides with Nitrogen Compounds (bacterial inoculum [2]; Time 9 days): + | Growth, Neutralization of Biocides with Nitrogen Compounds (bacterial inoculum [2]; Time 13 days): + | Growth, Neutralization of Biocides with Nitrogen Compounds (bacterial inoculum [2]; Time 20 days): +

Cl.N [NH4Cl]
microbial growth (bacteria): no growth | neutralizing biocides (glutaraldehyde) (bacteria): not effective
